According to paper PMC7649747, “The startle disease mutation α1S270T predicts shortening of glycinergic synaptic currents” (The Journal of Physiology, 2020):
Numbering of substitutions follows the chain as printed.

Assays:
homomeric α1 GlyR [1] = target: T1, homomeric α1 GlyR (Homo sapiens, UniProt P23415); assay: whole-cell patch clamp, U-tube application, Hill fit of peak currents; format: cell-based
T1 construct: gene GLRA1; full-length subunit, pcDNA3.1, transient expression in HEK293A; homopentamer; eGFP from separate plasmid
T1 sequence (P23415 29-457): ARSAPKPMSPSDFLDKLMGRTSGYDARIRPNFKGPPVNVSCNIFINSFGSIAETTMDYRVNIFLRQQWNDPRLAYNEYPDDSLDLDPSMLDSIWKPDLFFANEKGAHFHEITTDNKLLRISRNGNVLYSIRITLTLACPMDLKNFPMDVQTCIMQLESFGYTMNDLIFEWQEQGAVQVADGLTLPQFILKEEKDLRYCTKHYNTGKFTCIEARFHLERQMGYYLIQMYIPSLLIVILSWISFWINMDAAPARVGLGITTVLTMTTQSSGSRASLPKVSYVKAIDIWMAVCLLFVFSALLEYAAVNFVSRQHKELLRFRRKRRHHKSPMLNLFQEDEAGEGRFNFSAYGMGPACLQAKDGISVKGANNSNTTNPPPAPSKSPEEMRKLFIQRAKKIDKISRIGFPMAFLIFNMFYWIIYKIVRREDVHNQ
Excerpt: (§1) whole-cell patch clamp, U-tube application, Hill fit of peak currents on homomeric α1 GlyR

homomeric α1 GlyR [2] = target: T2, homomeric α1 GlyR (Homo sapiens, UniProt P23415, S298T); assay: as above; format: cell-based
T2 construct: gene GLRA1; full-length subunit, pcDNA3.1, transient expression in HEK293A; homopentamer; eGFP from separate plasmid
T2 sequence (P23415 29-457 S298T): T1 sequence (P23415 29-457) with S270T
Excerpt: as §1

SMILES: CNCC(=O)O [sarcosine]
- EC50 (homomeric α1 GlyR [1]): 14 ± 6 mM
- EC50 (homomeric α1 GlyR [2]): 23 ± 3 mM
